Experimental data reported in US9034886B2, “4-aminoquinazoline derivatives and uses thereof” (Shanghai Institute of Pharmaceutical Industry, priority 2011, dated 2015).
Like-named read-outs stand apart in the source and are kept apart here.

What was measured:
[1] = tested on: HDACs; test: In vitro inhibition of HDACs (HDAC Inhibitor Drug Screening Kit, Biovision K340-100); type: biochemical
Procedure: The in vitro inhibitory activities of the compounds towards HDACs were tested according to the instructions in the HDAC Inhibitor Drug Screening Kit (Biovision/Catalog #K340-100).
(1) The compounds to be tested were each individually prepared as 2 mM, 200 μM and 40 μM solutions and their inhibitory activities at these concentrations were tested.

[2] = molecular target: HDAC1 (Homo sapiens (Human), UniProt Q13547); test: In vitro inhibition of subtype HDAC1 (HDAC1 Inhibitor Drug Screening Kit, Biovision); type: biochemical; settings: for inhibition at 1 µM / inhibition at 10 µM: read-out: % Inhibition towards HDAC1
Procedure: The in vitro inhibitory activities of the compounds towards the subtype HDAC1 were tested according to the instructions in the HDAC1 Inhibitor Drug Screening Kit (Biovision).
(1) The compounds to be tested were each individually prepared as 10 μM and 1 μM solutions and their inhibitory activities at these concentrations were tested.
Each dilution sample was placed in two wells and the enzyme inhibition IC50 of the compound was tested.

[3] = tested on: Hut78 T lymphocytic leukemia cells; test: In vitro anti-proliferative effect, CCK-8 method, Hut78; type: cell-based; settings: for inhibition at 10 µM / inhibition at 100 µM: read-out: Hut-78 (inhibition %)
Procedure, shortened: (§1)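 Percent growth inhibition, measured with CCK-8, in Hut78 and K562 leukemia cells at two compound concentrations, 10 μM and 100 μM.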

[4] = tested on: PANC-1 human pancreatic cancer cells; test: In vitro anti-proliferative effect, CCK-8 method, PANC-1; type: cell-based; settings: for inhibition at 10 µM / inhibition at 100 µM: Homo sapiens, PANC-1
Procedure, shortened: (§2)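 Each compound is applied at 100 μM and at 10 μM. Inhibition percentages come from the CCK-8 method.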

[5] = tested on: Jurkat E6-1 human T-cell lymphoma; test: In vitro anti-proliferative effect, CCK-8 method, Jurkat E6-1; type: cell-based
Procedure, shortened: as §2

[6] = tested on: K562 human chronic myelogenous leukemia cells; test: In vitro anti-proliferative effect, CCK-8 method, K562; type: cell-based
Procedure, shortened: as §1

[7] = tested on: A549 human lung cancer cells; test: In vitro anti-proliferative effect, CCK-8 method, A549; type: cell-based
Procedure, shortened: as §2

[8] = tested on: MDA-MB-435s human breast cancer cells; test: In vitro anti-proliferative effect, CCK-8 method, MDA-MB-435s; type: cell-based; settings: for inhibition at 10 µM / inhibition at 100 µM: Homo sapiens, MDA-MB-435S
Procedure, shortened: as §2

[9] = tested on: Hep3B2.1-7 human liver cancer cells; test: In vitro anti-proliferative effect, CCK-8 method, Hep3B; type: cell-based
Procedure, shortened: as §2

[10] = tested on: PC-3 human prostate cancer; test: In vitro anti-proliferative effect, CCK-8 method, PC-3; type: cell-based; settings: for inhibition at 10 µM / inhibition at 100 µM: Homo sapiens
Procedure, shortened: as §2

[11] = tested on: Colo320 human colorectal cancer cell lines; test: In vitro anti-proliferative effect, CCK-8 method, Colo320; type: cell-based; settings: for inhibition at 10 µM / inhibition at 100 µM: Homo sapiens, COLO 320
Procedure, shortened: as §2

[12] = Maximum tolerance dose through intragastrical administration; type: in vivo; settings: mice, administrated intragastrically
Procedure, shortened: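 ICR mice (8˜20 g, both sexes, 10 per group) fasted 6 h, then dosed once intragastrically at 0.3 ml/10 g. Physical signs and deaths recorded at 1, 2 and 4 h, then daily with body weight over 14 days; dead animals necropsied with pathology on suspicious organs.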

[13] = molecular target: hERG potassium channel (Homo sapiens (Human), UniProt Q12809); test: Effects on hERG potassium channel; type: cell-based
[14] = Preliminary pharmacokinetics; settings: in vivo, rat
[15] = tested on: human A549 tumors; test: Human A549 tumors transplanted in nude mice; type: in vivo; settings: 50 mg/kg; for tumor inhibition %, A549 (lung cancer) / deaths, A549 model: nude mice; for deaths, A549 model: 8 mice in each group
[16] = tested on: human PC-3 tumors; test: Human PC-3 tumors transplanted in nude mice; type: in vivo; settings: 50 mg/kg
[17] = Homo sapiens, Jurkat E6.1, 10 μM
[18] = Homo sapiens, Jurkat E6.1, 100 μM
[19] = Homo sapiens, Hep3B cell strain, compound at 10 μM, CCK-8 method
[20] = Homo sapiens, Hep3B cell strain, compound at 100 μM, CCK-8 method
[21] = PC-3 cell strain, compound at 10 μM, CCK-8 method
[22] = PC-3 cell strain, compound at 100 μM, CCK-8 method
[23] = Colo320 cell strain, compound at 10 μM, CCK-8 method
[24] = Colo320 cell strain, compound at 100 μM, CCK-8 method

Sequence of HDAC1 (Q13547 whole entry): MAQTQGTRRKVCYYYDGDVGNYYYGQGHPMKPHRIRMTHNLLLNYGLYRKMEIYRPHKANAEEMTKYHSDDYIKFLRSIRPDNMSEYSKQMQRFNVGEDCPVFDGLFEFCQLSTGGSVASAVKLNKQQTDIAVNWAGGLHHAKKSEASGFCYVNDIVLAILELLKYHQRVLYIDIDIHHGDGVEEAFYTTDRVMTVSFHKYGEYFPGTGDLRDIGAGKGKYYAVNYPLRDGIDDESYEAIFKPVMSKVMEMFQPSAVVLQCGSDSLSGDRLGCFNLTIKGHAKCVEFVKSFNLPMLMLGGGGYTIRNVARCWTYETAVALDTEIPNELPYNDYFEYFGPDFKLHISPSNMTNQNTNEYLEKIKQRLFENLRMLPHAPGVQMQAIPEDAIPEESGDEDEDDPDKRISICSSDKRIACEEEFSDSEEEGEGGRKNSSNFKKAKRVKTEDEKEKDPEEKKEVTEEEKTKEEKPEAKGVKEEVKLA
Sequence of hERG potassium channel (Q12809 whole entry): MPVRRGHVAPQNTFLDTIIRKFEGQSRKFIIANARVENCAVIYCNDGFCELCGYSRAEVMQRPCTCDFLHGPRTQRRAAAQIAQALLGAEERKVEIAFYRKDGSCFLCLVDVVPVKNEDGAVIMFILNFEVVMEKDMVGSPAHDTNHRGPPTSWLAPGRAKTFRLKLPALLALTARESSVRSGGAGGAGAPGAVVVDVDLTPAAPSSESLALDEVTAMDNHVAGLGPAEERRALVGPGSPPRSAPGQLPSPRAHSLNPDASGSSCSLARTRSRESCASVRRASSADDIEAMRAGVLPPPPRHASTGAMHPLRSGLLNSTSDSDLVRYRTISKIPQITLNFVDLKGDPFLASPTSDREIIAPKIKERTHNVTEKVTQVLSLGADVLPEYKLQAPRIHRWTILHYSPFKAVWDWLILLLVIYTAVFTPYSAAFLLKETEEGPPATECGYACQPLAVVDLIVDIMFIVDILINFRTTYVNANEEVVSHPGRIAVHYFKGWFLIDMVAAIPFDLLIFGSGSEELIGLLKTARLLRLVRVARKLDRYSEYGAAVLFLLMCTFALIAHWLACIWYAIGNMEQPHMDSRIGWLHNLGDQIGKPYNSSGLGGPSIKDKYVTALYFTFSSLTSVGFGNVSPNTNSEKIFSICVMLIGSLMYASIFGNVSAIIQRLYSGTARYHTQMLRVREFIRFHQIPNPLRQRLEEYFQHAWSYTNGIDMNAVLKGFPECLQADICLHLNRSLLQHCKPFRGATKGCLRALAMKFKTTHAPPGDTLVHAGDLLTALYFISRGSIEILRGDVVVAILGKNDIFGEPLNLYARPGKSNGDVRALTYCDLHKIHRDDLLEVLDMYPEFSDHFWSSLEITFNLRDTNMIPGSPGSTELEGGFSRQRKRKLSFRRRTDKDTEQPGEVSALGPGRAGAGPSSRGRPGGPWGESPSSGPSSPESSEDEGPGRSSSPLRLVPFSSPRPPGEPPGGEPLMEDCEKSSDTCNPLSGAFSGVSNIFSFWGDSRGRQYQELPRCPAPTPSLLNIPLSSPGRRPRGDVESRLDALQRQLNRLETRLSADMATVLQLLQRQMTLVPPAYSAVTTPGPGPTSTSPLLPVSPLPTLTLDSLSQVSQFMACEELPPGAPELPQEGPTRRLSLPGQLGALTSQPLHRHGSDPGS

SMILES: Nc1ccccc1NC(=O)c1ccc(CNc2ncnc3ccccc23)cc1 [Compound V-27, N-(2-aminophenyl)-4-[(quinazoline-4-amino)methyl]benzamide]
- IC50 [1]: 1310 nM
- inhibitory activity according to in vitro IC50 value against HDACs compared with MS-275 [1]: better inhibitory activities than MS-275
- Inhibition percentage (%) towards HDACs ([1]; 40 μM): 73.2%
- Inhibition percentage (%) towards HDACs ([1]; 200 μM): 82.6%
- Inhibition percentage (%) towards HDACs ([1]; 2 mM): 91.9%
- inhibitory activity on HDACs compared with MS-275 ([1]; concentrations of 2 mM, 200 μM, and 40 μM): significantly stronger inhibitory activities than MS-275
- IC50 [2]: 212 nM
- inhibition at 1 µM [2]: 58.3%
- inhibition at 10 µM [2]: 83%
- inhibitory activity against HDAC1 compared with MS-275 ([2]; both concentrations 10 μM and 1 μM): superior to that of MS-275
- IC50 ([3]; Homo sapiens, HuT78): 356 nM
- inhibition at 10 µM ([3]; Homo sapiens, HuT78): 69.2%
- inhibition at 100 µM ([3]; Homo sapiens, HuT78, 100 μM): 89.3%
- inhibition at 10 µM ([4]; 10 μM): 44.4%
- inhibition at 100 µM ([4]; 100 μM): 69.5%
- IC50 ([5]; Homo sapiens, Jurkat E6.1): 458 nM
- inhibition at 10 µM [5, 17]: 31.6%
- inhibition at 100 µM [5, 18]: 87.6%
- IC50 ([6]; Homo sapiens, K562): 437 nM
- inhibition at 10 µM ([6]; Homo sapiens, K562, 10 μM): 45%
- inhibition at 100 µM ([6]; Homo sapiens, K562, 100 μM): 75%
- IC50 ([7]; Homo sapiens, A549): 3140 nM
- inhibition at 10 µM ([7]; Homo sapiens, A549, 10 μM): 82.8%
- inhibition at 100 µM ([7]; Homo sapiens, A549, 100 μM): 97.7%
- inhibition at 10 µM ([8]; 10 μM): 28.5%
- inhibition at 100 µM ([8]; 100 μM): 76.3%
- IC50 ([9]; Homo sapiens, Hep3B): 1520 nM
- inhibition at 10 µM [9, 19]: -12.3%
- inhibition at 100 µM [9, 20]: 68.3%
- inhibition at 10 µM [10, 21]: 43.8%
- inhibition at 100 µM [10, 22]: 59.9%
- inhibition at 10 µM [11, 23]: 60%
- inhibition at 100 µM [11, 24]: 82.3%
- maximum tolerance dose [12]: over 2000 mg/kg
- inhibition at 10 µM ([13]; human, hERG potassium current, 10 μM, read-out: Maximum inhibition percentage at 10 μM (%)): 29.9 ± 6.7%
- IC50 ([13]; read-out: Half inhibition concentration for the effect on hERG potassium current, IC50): > 10000 nM
- half-life ([14]; iv, 2 mg/kg, i.v., read-out: Intravenous half-life (converted)): 0.95 h
- bioavailability ([14]; oral): 28.6%
- half-life ([14]; oral, read-out: Oral half-life (converted)): 3.37 h
- antitumor effect on nude mice xenograft model A549 [15]: significantly inhibit the growth of tumor
- mortality and weight loss in nude mice [15]: no mortality and significant weight loss
- tumor inhibition %, A549 (lung cancer) [15]: 61.83%
- deaths, A549 model [15]: no death

SMILES: Nc1ccc(F)cc1NC(=O)c1ccc(CNc2ncnc3ccccc23)cc1 [Compound V-29, N-(2-amino-5-fluorophenyl)-4-[(quinazoline-4-amino)methyl]benzamide]
- Inhibition percentage (%) towards HDACs ([1]; 40 μM): 8.6%
- Inhibition percentage (%) towards HDACs ([1]; 200 μM): 31.0%
- Inhibition percentage (%) towards HDACs ([1]; 2 mM): 37.8%
- IC50 [2]: 517 nM
- inhibition at 1 µM [2]: 41.4%
- inhibition at 10 µM [2]: 63.2%
- inhibition at 10 µM ([3]; Homo sapiens, HuT78): 79.4%
- inhibition at 100 µM ([3]; Homo sapiens, HuT78, 100 μM): 94%
- inhibition at 10 µM ([4]; 10 μM): 0.9%
- inhibition at 100 µM ([4]; 100 μM): 18.4%
- inhibition at 10 µM [5, 17]: 51.5%
- inhibition at 100 µM [5, 18]: 96.2%
- inhibition at 10 µM ([6]; Homo sapiens, K562, 10 μM): 57.4%
- inhibition at 100 µM ([6]; Homo sapiens, K562, 100 μM): 83.8%
- inhibition at 10 µM ([7]; Homo sapiens, A549, 10 μM): 6.3%
- inhibition at 100 µM ([7]; Homo sapiens, A549, 100 μM): 69.8%
- inhibition at 10 µM ([8]; 10 μM): 10.1%
- inhibition at 100 µM ([8]; 100 μM): 78.5%
- inhibition at 10 µM [9, 19]: 22.5%
- inhibition at 100 µM [9, 20]: 60.5%
- inhibition at 10 µM [10, 21]: 88%
- inhibition at 100 µM [10, 22]: 94.5%
- inhibition at 10 µM [11, 23]: -7.2%
- inhibition at 100 µM [11, 24]: 35.5%
- maximum tolerance dose [12]: over 5000 mg/kg

SMILES: Nc1ccccc1NC(=O)c1ccc(CNC(=O)OCc2cccnc2)cc1 [MS-275, reference compound]
- IC50 [1]: 3520 nM
- Inhibition percentage (%) towards HDACs ([1]; 40 μM): 32.5%
- Inhibition percentage (%) towards HDACs ([1]; 200 μM): 60.5%
- Inhibition percentage (%) towards HDACs ([1]; 2 mM): 82.2%
- IC50 [3]: 528 nM
- Hut-78 (inhibition %) ([3]; 100 μM): 85.3%
- PANC-1 (inhibition %) ([4]; 10 μM): 12.4%
- PANC-1 (inhibition %) ([4]; 100 μM): 31.6%
- IC50 [5]: 561 nM
- Jurkat E6-1 (inhibition %) ([5]; 10 μM): 89.5%
- Jurkat E6-1 (inhibition %) ([5]; 100 μM): 96.1%
- K562 (inhibition %) ([6]; 10 μM): 66.2%
- K562 (inhibition %) ([6]; 100 μM): 74.6%
- IC50 [7]: 2280 nM
- A549 (inhibition %) ([7]; 10 μM): 58.9%
- A549 (inhibition %) ([7]; 100 μM): 92.3%
- 435s (inhibition %) ([8]; 10 μM): 2.7%
- 435s (inhibition %) ([8]; 100 μM): 59.3%
- IC50 [9]: 6820 nM
- Hep3B (inhibition %) 10 μM ([9]; Hep3B cell strain, compound at 10 μM, CCK-8 method): 10.8%
- Hep3B (inhibition %) 100 μM ([9]; Hep3B cell strain, compound at 100 μM, CCK-8 method): 52.1%
- IC50 [10]: 502 nM
- PC-3 (inhibition %) 10 μM [10, 21]: 12.5%
- PC-3 (inhibition %) 100 μM [10, 22]: 71.5%
- IC50 [11]: 522 nM
- Colo320 (inhibition %) 10 μM [11, 23]: 18.0%
- Colo320 (inhibition %) 100 μM [11, 24]: 61.6%
- tumor inhibition %, PC-3 (human prostate cancer) [16]: 89.60%
- deaths, PC-3 model ([16]; 8 mice in each group): 4
- tumor inhibition %, A549 (lung cancer) [15]: 79.41%
- deaths, A549 model [15]: 3
